# Measurements: patent US10758549B2, “Compositions of obeticholic acid and methods of use” (Intercept Pharmaceuticals, Inc., priority 2015, dated 2020)
# Key:
# [1] = biological target: T1, farnesoid X receptor (FXR) (Homo sapiens, UniProt Q96RI1); conditions: in vitro / on FXR; cited from earlier work
# T1 sequence (Q96RI1 1-486): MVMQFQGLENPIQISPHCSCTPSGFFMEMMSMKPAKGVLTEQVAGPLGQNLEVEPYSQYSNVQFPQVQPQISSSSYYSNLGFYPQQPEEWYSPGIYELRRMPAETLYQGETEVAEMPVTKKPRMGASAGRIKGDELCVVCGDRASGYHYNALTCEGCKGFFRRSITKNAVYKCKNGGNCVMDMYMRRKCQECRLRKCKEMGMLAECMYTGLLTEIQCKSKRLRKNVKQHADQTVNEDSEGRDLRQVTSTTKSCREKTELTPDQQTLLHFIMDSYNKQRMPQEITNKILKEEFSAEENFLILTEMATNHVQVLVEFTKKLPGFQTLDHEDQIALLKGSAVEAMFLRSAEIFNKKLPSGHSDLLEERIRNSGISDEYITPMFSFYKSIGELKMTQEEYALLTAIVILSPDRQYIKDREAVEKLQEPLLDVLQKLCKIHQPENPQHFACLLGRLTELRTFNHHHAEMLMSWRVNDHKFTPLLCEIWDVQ
# [2] = Example 10: clinical pharmacology / pharmacokinetics of OCA; assay type: in vivo, human; conditions: for systemic exposure versus dose: 5, 10, and 25 mg once daily for 14 days; for metabolite-to-parent ratio: after daily administration of obeticholic acid; for median time (Tmax) of peak plasma concentrations: glyco-OCA and tauro-OCA conjugates, multiple oral doses of OCA 10 mg once daily
# Description: This example describes clinical pharmacology and dosing of obeticholic acid (OCA—including obeticholic acid compositions described herein). […] OCA can be supplied as an oral tablet containing obeticholic acid in a formulation as described herein.
# Median Tmax for glyco-OCA and tauro-OCA is 10 hours.
# Following an oral administration of 25 mg [^14C]-OCA, about 87% of the dose is excreted in feces through biliary secretion. Less than 3% of the dose is excreted in the urine with no detection of OCA.
# [3] = Physiologic pharmacokinetic model of OCA (population PK fit and simulations); parameters: species or system human; conditions: normal hepatic function, model estimate
# Description: Plasma levels of OCA and its conjugates were measured in healthy subjects and cirrhotic patients with varying degrees of hepatic impairment. A physiologic pharmacokinetic model for OCA was developed to quantitatively describe the absorption, distribution, metabolism, and excretion of OCA in patients with and without hepatic impairment. The model was based on a published multi-compartment PK model for CDCA, and consisted of systemic, hepatobiliary, and intestinal systems. The model was used to simulate the pathophysiological abnormalities caused by cirrhosis including decreased hepatic uptake, portal-systemic shunting, decreased liver volume, and differences in amino acid conjugation.
# This examples describes development of a physiologic PK model to quantitatively describe the absorption, distribution, metabolism, and excretion of OCA. In addition, the model was used to define the effects of hepatic impairment to predict the systemic and liver exposure to OCA in subjects with various degrees of liver impairment relative to healthy subjects with normal liver function. The model was developed based on 3 studies in healthy volunteers and 2 studies in patients with varying degrees of hepatic impairment […].
# Data from was used to develop the model in healthy subjects (n=160) and then adjust for hepatic impairment (n=32) using the data from the above Examples. After development, the model was validated with data sourced from healthy subjects and cirrhotic patients.
# The data used in model development included subject identifiers, time of dosing and sample collection, plasma drug concentrations (OCA, glyco-OCA, and tauro-OCA), dose amount, disease status (e.g., Child-Pugh score), and meal consumption information. Study participants received standardized meals at specified times during inpatient observation. Gallbladder contraction was assumed to last 90 minutes after the start of a meal. Drug concentrations below the limit of quantification (BLQ) were imputed to half of the lower limit of quantification (LLOQ). Observed and BLQ concentrations of OCA, glyco-OCA, and tauro-OCA associated with samples drawn prior to the first dose were excluded from the analyses.
# A number of structural modifications were made to the base CDCA model in order to adapt it for use with OCA. For simplification, a single space was used to represent the gut (small and large intestines). Since OCA is an exogenous molecule, it was assumed that there was no endogenous synthesis and an absorption compartment with a first-order transfer coefficient (Ka) was included to represent the administration and absorption kinetics of an oral OCA dose. Based on steric hindrance by the 6-ethyl group of OCA, no bacterial 7-alpha dehydroxylation biotransformation activity (i.e., CDCA to lithocholic acid) was included in the model. Compartment volumes in the model were fixed to physiological values from the base CDCA model. The OCA model used the physiological flow values for blood, bile and gastrointestinal transit from the original physiologic PK model for CDCA, with the exception of flows from bile duct to gallbladder and from bile duct to gut. The physiological values from the base model led to poor predictions and may not be applicable due to the simplification of the enteral system into a unified gut compartment. The biotransformation and transport rates in the model, being dependent on chemical entity structure, were estimated by fitting the model to the plasma concentration time profiles of OCA, glyco-OCA, and tauro-OCA.
# The PK model was first developed using the OCA, glyco-OCA, and tauro-OCA plasma concentration time profiles from healthy volunteers with normal hepatic function. Model parameter estimates related to healthy physiology were then held constant while the PK model was further developed using OCA, glyco-OCA, and tauro-OCA plasma concentration time profiles from patients with hepatic impairment (Child-Pugh scores A, B, and C). […]
# [4] = normal hepatic function, Fixed; cited from earlier work
Structure (SMILES),pharmacological activity relative to OCA (parent drug) [1],systemic exposure versus dose [2],metabolite-to-parent ratio [2],median time (Tmax) of peak plasma concentrations [2],b38: Glyco-OCA rate of deconjugation to OCA [3],t9: Glyco-OCA transport rate from sinusoidal space to liver [3],t19: Glyco-OCA transport rate from liver to bile duct [3],t33: Glyco-OCA rate of absorption from gut to portal space [3],t12: Glyco-OCA and tauro-OCA transport rate from liver to sinusoidal space [4],b37: Tauro-OCA rate of deconjugation to OCA [3],t11: Tauro-OCA transport rate from sinusoidal space to liver [3],t21: Tauro-OCA transport rate from liver to bile duct [3],t35: Tauro-OCA rate of absorption from gut to portal space [3]
CCC1C(O)C2C3CCC(C(C)CCC(=O)O)C3(C)CCC2C2(C)CCC(OC3OC(C(=O)O)C(O)C(O)C3O)CC12 (stereo not shown) [3-glucuronide],minimal pharmacologic activity,–,–,–,–,–,–,–,–,–,–,–,–
CC[C@H]1[C@@H](O)[C@@H]2[C@H](CC[C@]3(C)[C@@H]([C@H](C)CCC(=O)NCC(=O)O)CC[C@@H]23)[C@@]2(C)CC[C@@H](O)C[C@@H]12 [glyco-OCA],nearly equipotent,increase more than proportionally with dose,13.8,10 h,0.0431 h⁻¹,1210 h⁻¹,7.44 h⁻¹,0.904 h⁻¹,1.62 h⁻¹,–,–,–,–
CC[C@H]1[C@@H](O)[C@@H]2[C@H](CC[C@]3(C)[C@@H]([C@H](C)CCC(=O)NCCS(=O)(=O)O)CC[C@@H]23)[C@@]2(C)CC[C@@H](O)C[C@@H]12 [tauro-OCA],nearly equipotent,increase more than proportionally with dose,12.3,10 h,–,–,–,–,1.62 h⁻¹,0.0200 h⁻¹,1615 h⁻¹,9.28 h⁻¹,1.62 h⁻¹
